# Experimental data as given in BindingDB's records for doi:10.7270/Q28C9TSJ (Nmmlsc, 2011).
# Biological target: T1, Multidrug resistance protein CDR2 (Candida albicans (strain SC5314 / ATCC MYA-2876), UniProt P78595)
# T1 sequence (P78595 whole entry): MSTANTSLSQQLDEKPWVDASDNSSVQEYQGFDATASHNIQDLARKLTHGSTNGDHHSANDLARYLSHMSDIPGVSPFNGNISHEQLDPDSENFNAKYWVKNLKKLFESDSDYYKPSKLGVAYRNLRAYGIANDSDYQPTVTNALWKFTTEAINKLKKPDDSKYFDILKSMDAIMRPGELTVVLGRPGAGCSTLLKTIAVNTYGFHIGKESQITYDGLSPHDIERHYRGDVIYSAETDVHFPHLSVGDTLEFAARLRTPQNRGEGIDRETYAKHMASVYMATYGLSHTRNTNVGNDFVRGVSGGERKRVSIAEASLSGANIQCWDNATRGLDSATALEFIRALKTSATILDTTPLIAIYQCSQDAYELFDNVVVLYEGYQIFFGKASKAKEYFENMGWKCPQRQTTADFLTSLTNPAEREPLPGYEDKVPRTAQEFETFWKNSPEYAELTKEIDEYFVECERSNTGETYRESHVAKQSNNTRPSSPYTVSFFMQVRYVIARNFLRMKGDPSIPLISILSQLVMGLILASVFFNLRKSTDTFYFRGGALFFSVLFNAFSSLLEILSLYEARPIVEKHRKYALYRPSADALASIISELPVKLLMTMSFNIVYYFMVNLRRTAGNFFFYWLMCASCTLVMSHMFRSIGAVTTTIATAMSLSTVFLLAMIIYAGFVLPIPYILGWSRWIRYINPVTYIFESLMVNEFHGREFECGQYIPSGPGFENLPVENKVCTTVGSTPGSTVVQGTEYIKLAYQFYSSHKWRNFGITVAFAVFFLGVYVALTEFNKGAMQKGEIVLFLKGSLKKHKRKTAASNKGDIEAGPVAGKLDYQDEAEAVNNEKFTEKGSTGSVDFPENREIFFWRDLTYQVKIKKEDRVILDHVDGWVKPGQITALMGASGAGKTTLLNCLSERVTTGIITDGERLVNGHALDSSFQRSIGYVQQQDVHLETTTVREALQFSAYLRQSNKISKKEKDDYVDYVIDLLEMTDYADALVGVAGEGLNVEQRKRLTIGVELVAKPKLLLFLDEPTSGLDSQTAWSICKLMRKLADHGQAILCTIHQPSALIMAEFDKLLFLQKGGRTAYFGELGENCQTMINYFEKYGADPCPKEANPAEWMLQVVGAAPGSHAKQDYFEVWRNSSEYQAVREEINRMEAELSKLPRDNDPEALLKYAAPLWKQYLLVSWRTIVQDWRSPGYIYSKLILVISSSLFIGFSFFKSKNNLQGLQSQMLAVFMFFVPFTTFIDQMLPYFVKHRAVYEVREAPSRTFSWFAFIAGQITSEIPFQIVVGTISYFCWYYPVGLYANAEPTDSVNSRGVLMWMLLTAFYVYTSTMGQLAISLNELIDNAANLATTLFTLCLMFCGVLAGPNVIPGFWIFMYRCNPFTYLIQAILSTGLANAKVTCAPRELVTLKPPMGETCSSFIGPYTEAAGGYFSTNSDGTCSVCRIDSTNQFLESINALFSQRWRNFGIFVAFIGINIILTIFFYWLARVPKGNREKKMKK
# Assay: inhibition of Nile Red efflux via Candida CDR2 – S. cerevisiae AD1-8u, singleplex, Cherry Pick1 hits, dose response (AID 588604)
smiles,measurement,value
O=[N+]([O-])c1cc(CN=Nc2ccccn2)ccc1Cl,EC50,9.33 µM
